How the values were obtained:
[1] = xn = mol fraction of the nth substance listed; conditions: 100 kPa, Liquid, Vibrating tube method
[2] = excess molar enthalpy (molar enthalpy of mixing); xn = mol fraction of the nth substance listed; conditions: 100 kPa, Liquid, Calvet calorimetry

CCCC[N+](C)(C)C.O=S(=O)([N-]S(=O)(=O)C(F)(F)F)C(F)(F)F [butyltrimethylammonium bis(trifluoromethylsulfonyl)imide] + CCO
Conditions	excess molar enthalpy [kcal/mol]	mass density [kg/m3]
[1], 293.15 K, x2 = 0	–	1397.1
[1], 293.15 K, x2 = 0.1284	–	1379.5
[1], 293.15 K, x2 = 0.2585	–	1357.1
[1], 293.15 K, x2 = 0.3814	–	1329.7
[1], 293.15 K, x2 = 0.5031	–	1293.9
[1], 293.15 K, x2 = 0.6487	–	1232.1
[1], 293.15 K, x2 = 0.7823	–	1142
[1], 293.15 K, x2 = 0.8561	–	1066.3
[1], 293.15 K, x2 = 0.8763	–	1040.6
[1], 293.15 K, x2 = 0.9039	–	1000.1
[1], 293.15 K, x2 = 0.95	–	916.4
[1], 293.15 K, x2 = 0.9745	–	860.2
[1], 295.15 K, x2 = 0	–	1395.3
[1], 295.15 K, x2 = 0.1284	–	1377.7
[1], 295.15 K, x2 = 0.2585	–	1355.3
[1], 295.15 K, x2 = 0.3814	–	1327.8
[1], 295.15 K, x2 = 0.5031	–	1292
[1], 295.15 K, x2 = 0.6487	–	1230.3
[1], 295.15 K, x2 = 0.7823	–	1140.1
[1], 295.15 K, x2 = 0.8561	–	1064.5
[1], 295.15 K, x2 = 0.8763	–	1038.8
[1], 295.15 K, x2 = 0.9039	–	998.3
[1], 295.15 K, x2 = 0.95	–	914.6
[1], 295.15 K, x2 = 0.9745	–	858.4
[1], 298.15 K, x2 = 0	–	1392.7
[1], 298.15 K, x2 = 0.1284	–	1375.1
[1], 298.15 K, x2 = 0.2585	–	1352.6
[1], 298.15 K, x2 = 0.3814	–	1325.1
[1], 298.15 K, x2 = 0.5031	–	1289.3
[1], 298.15 K, x2 = 0.6487	–	1227.5
[1], 298.15 K, x2 = 0.7823	–	1137.3
[1], 298.15 K, x2 = 0.8561	–	1061.7
[1], 298.15 K, x2 = 0.8763	–	1036
[1], 298.15 K, x2 = 0.9039	–	995.6
[1], 298.15 K, x2 = 0.95	–	911.9
[1], 298.15 K, x2 = 0.9745	–	855.8
[1], 303.15 K, x2 = 0	–	1388.3
[1], 303.15 K, x2 = 0.1284	–	1370.6
[1], 303.15 K, x2 = 0.2585	–	1348.1
[1], 303.15 K, x2 = 0.3814	–	1320.6
[1], 303.15 K, x2 = 0.5031	–	1284.7
[1], 303.15 K, x2 = 0.6487	–	1222.8
[1], 303.15 K, x2 = 0.7823	–	1132.7
[1], 303.15 K, x2 = 0.8561	–	1057.1
[1], 303.15 K, x2 = 0.8763	–	1031.4
[1], 303.15 K, x2 = 0.9039	–	991
[1], 303.15 K, x2 = 0.95	–	907.4
[1], 303.15 K, x2 = 0.9745	–	851.4
[1], 308.15 K, x2 = 0	–	1384
[1], 308.15 K, x2 = 0.1284	–	1366.2
[1], 308.15 K, x2 = 0.2585	–	1343.7
[1], 308.15 K, x2 = 0.3814	–	1316.1
[1], 308.15 K, x2 = 0.5031	–	1280.1
[1], 308.15 K, x2 = 0.6487	–	1218.2
[1], 308.15 K, x2 = 0.7823	–	1128
[1], 308.15 K, x2 = 0.8561	–	1052.4
[1], 308.15 K, x2 = 0.8763	–	1026.8
[1], 308.15 K, x2 = 0.9039	–	986.4
[1], 308.15 K, x2 = 0.95	–	902.9
[1], 308.15 K, x2 = 0.9745	–	846.9
[1], 313.15 K, x2 = 0	–	1379.6
[1], 313.15 K, x2 = 0.1284	–	1361.8
[1], 313.15 K, x2 = 0.2585	–	1339.2
[1], 313.15 K, x2 = 0.3814	–	1311.6
[1], 313.15 K, x2 = 0.5031	–	1275.6
[1], 313.15 K, x2 = 0.6487	–	1213.6
[1], 313.15 K, x2 = 0.7823	–	1123.3
[1], 313.15 K, x2 = 0.8561	–	1047.8
[1], 313.15 K, x2 = 0.8763	–	1022.1
[1], 313.15 K, x2 = 0.9039	–	981.8
[1], 313.15 K, x2 = 0.95	–	898.4
[1], 313.15 K, x2 = 0.9745	–	842.5
[1], 318.15 K, x2 = 0	–	1375.2
[1], 318.15 K, x2 = 0.1284	–	1357.4
[1], 318.15 K, x2 = 0.2585	–	1334.8
[1], 318.15 K, x2 = 0.3814	–	1307.1
[1], 318.15 K, x2 = 0.5031	–	1271
[1], 318.15 K, x2 = 0.6487	–	1209
[1], 318.15 K, x2 = 0.7823	–	1118.6
[1], 318.15 K, x2 = 0.8561	–	1043.1
[1], 318.15 K, x2 = 0.8763	–	1017.4
[1], 318.15 K, x2 = 0.9039	–	977.1
[1], 318.15 K, x2 = 0.95	–	893.8
[1], 318.15 K, x2 = 0.9745	–	838
[1], 323.15 K, x2 = 0	–	1370.9
[1], 323.15 K, x2 = 0.1284	–	1353.1
[1], 323.15 K, x2 = 0.2585	–	1330.4
[1], 323.15 K, x2 = 0.3814	–	1302.6
[1], 323.15 K, x2 = 0.5031	–	1266.5
[1], 323.15 K, x2 = 0.6487	–	1204.4
[1], 323.15 K, x2 = 0.7823	–	1114
[1], 323.15 K, x2 = 0.8561	–	1038.4
[1], 323.15 K, x2 = 0.8763	–	1012.7
[1], 323.15 K, x2 = 0.9039	–	972.4
[1], 323.15 K, x2 = 0.95	–	889.2
[1], 323.15 K, x2 = 0.9745	–	833.4
[1], 328.15 K, x2 = 0	–	1366.6
[1], 328.15 K, x2 = 0.1284	–	1348.7
[1], 328.15 K, x2 = 0.2585	–	1325.9
[1], 328.15 K, x2 = 0.3814	–	1298.1
[1], 328.15 K, x2 = 0.5031	–	1261.9
[1], 328.15 K, x2 = 0.6487	–	1199.7
[1], 328.15 K, x2 = 0.7823	–	1109.2
[1], 328.15 K, x2 = 0.8561	–	1033.7
[1], 328.15 K, x2 = 0.8763	–	1008
[1], 328.15 K, x2 = 0.9039	–	967.7
[1], 328.15 K, x2 = 0.95	–	884.5
[1], 328.15 K, x2 = 0.9745	–	828.8
[1], 333.15 K, x2 = 0	–	1362.3
[1], 333.15 K, x2 = 0.1284	–	1344.3
[1], 333.15 K, x2 = 0.2585	–	1321.5
[1], 333.15 K, x2 = 0.3814	–	1293.7
[1], 333.15 K, x2 = 0.5031	–	1257.4
[1], 333.15 K, x2 = 0.6487	–	1195.1
[1], 333.15 K, x2 = 0.7823	–	1104.5
[1], 333.15 K, x2 = 0.8561	–	1028.9
[1], 333.15 K, x2 = 0.8763	–	1003.3
[1], 333.15 K, x2 = 0.9039	–	963
[1], 333.15 K, x2 = 0.95	–	879.8
[1], 333.15 K, x2 = 0.9745	–	824.2
[2], 308.15 K, x2 = 0.1229	0.203	–
[2], 308.15 K, x2 = 0.2546	0.389	–
[2], 308.15 K, x2 = 0.2623	0.396	–
[2], 308.15 K, x2 = 0.2752	0.411	–
[2], 308.15 K, x2 = 0.3943	0.51	–
[2], 308.15 K, x2 = 0.5084	0.559	–
[2], 308.15 K, x2 = 0.5133	0.551	–
[2], 308.15 K, x2 = 0.5408	0.557	–
[2], 308.15 K, x2 = 0.6267	0.544	–
[2], 308.15 K, x2 = 0.7252	0.509	–
[2], 308.15 K, x2 = 0.7354	0.503	–
[2], 308.15 K, x2 = 0.7659	0.467	–
[2], 308.15 K, x2 = 0.8645	0.352	–
[2], 313.15 K, x2 = 0.113	0.187	–
[2], 313.15 K, x2 = 0.2393	0.374	–
[2], 313.15 K, x2 = 0.2549	0.385	–
[2], 313.15 K, x2 = 0.3933	0.518	–
[2], 313.15 K, x2 = 0.4936	0.569	–
[2], 313.15 K, x2 = 0.4959	0.567	–
[2], 313.15 K, x2 = 0.499	0.568	–
[2], 313.15 K, x2 = 0.6245	0.564	–
[2], 313.15 K, x2 = 0.7406	0.507	–
[2], 313.15 K, x2 = 0.8666	0.369	–
[2], 323.15 K, x2 = 0.1187	0.185	–
[2], 323.15 K, x2 = 0.2569	0.406	–
[2], 323.15 K, x2 = 0.2694	0.422	–
[2], 323.15 K, x2 = 0.3969	0.538	–
[2], 323.15 K, x2 = 0.527	0.6	–
[2], 323.15 K, x2 = 0.5431	0.611	–
[2], 323.15 K, x2 = 0.6214	0.598	–
[2], 323.15 K, x2 = 0.7499	0.548	–
[2], 323.15 K, x2 = 0.8707	0.413	–
